“And” between values parts separate entries of the source, which are not always exact repeats. Equal values may be shown once.
Legend:
[1] = target: T1, Drosophila OR47a (Drosophila melanogaster, UniProt P81921); assay: Calcium ion fluorescence (GCaMP6) assay, OR47a stable HEK293 cell line; type: cell-based; conditions: for OR47a response (VUAA1-normalized) at 1 μM / OR47a response (VUAA1-normalized) at 10 μM / OR47a response (VUAA1-normalized) at 100 μM / Average response: OR47a cell line; for OR47a response (VUAA1-normalized) at 1 μM: VOC concentration 1 μM; for OR47a response (VUAA1-normalized) at 10 μM: VOC concentration 10 μM; for OR47a response (VUAA1-normalized) at 100 μM: VOC concentration 100 μM; for Average response: mean of biological replicates; for DF norm AVERAGE OR47a: threshold 0.05, below shown as 0
T1 construct: expressed in transfected cells
T1 sequence (P81921 1-385): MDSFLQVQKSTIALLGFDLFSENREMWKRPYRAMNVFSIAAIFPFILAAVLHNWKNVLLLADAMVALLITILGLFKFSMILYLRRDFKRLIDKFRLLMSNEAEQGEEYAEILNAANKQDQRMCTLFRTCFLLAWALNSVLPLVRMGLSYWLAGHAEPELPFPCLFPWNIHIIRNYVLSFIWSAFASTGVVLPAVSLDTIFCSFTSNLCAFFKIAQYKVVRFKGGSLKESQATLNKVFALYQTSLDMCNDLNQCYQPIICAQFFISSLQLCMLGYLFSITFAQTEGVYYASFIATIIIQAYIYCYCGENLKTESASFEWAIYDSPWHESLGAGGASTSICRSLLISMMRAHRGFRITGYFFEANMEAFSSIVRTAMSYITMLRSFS
T1 sequence (Q9VNB5 1-486 partner): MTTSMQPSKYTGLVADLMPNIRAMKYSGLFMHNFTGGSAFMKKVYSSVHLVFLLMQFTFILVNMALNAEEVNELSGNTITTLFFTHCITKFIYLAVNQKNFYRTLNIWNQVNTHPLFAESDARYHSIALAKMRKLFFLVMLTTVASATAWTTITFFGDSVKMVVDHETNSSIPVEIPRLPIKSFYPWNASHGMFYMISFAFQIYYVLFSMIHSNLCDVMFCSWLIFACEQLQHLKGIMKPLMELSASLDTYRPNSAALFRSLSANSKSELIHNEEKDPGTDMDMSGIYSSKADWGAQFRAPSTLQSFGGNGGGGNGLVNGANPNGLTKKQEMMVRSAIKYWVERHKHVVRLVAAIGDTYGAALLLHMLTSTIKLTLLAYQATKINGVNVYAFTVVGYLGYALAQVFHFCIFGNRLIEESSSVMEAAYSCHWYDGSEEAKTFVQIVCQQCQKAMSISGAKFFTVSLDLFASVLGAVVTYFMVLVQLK
How it was run: (§1)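 Responses are VUAA1-normalized ΔF: each VOC-evoked calcium signal, (FMAX−F0)/F0 over 30 s after injection, divided by the same line's mean 50 µM VUAA1 response. Cells were doxycycline-induced HEK293 with GCaMP6 and the cognate Drosophila OR, in HEPES buffer pH 7.3; ligands tested 0.01–100 μM.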

[2] = target: T2, Drosophila OR71a (Drosophila melanogaster, UniProt Q9VUK5); assay: Calcium ion fluorescence (GCaMP6) assay, OR71a stable HEK293 cell line; type: cell-based; conditions: for OR71a response (VUAA1-normalized) at 1 μM / OR71a response (VUAA1-normalized) at 10 μM / OR71a response (VUAA1-normalized) at 100 μM / Average response: OR71a cell line; for OR71a response (VUAA1-normalized) at 1 μM: VOC concentration 1 μM; for OR71a response (VUAA1-normalized) at 10 μM: VOC concentration 10 μM; for OR71a response (VUAA1-normalized) at 100 μM: VOC concentration 100 μM; for Average response: VUAA1-normalized response, mean of biological replicates; for DF norm AVERAGE OR71a: threshold 0.05, below shown as 0
T2 construct: expressed in transfected cells
T2 sequence (Q9VUK5 1-378): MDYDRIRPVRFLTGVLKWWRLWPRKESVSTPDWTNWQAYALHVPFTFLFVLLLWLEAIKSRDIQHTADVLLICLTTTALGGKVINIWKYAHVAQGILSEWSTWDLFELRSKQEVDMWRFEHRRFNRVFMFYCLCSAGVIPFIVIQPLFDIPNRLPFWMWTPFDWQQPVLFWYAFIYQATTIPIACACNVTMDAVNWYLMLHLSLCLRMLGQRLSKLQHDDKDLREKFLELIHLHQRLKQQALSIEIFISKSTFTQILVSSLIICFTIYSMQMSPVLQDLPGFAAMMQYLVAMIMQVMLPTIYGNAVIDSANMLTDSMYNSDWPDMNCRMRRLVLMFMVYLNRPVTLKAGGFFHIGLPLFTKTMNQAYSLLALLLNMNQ
T2 sequence (Q9VNB5 1-486 partner): T1 sequence (Q9VNB5 1-486 partner)
How it was run: as §1

[3] = HEK293, read-out: OR47a Average response (VUAA1-normalized)
[4] = ligand concentration 1 (unit not given)
[5] = ligand concentration 10 (unit not given)
[6] = ligand concentration 100 (unit not given)

CCCCCOC(C)=O [pentyl acetate]
EC50 ([1]; AVERAGE EC50, the 14th table, corresponds to average LOG EC50, given with 95% confidence interval): 2220 nM
EC50 ([1]; EC50, AVERAGE of replicate fits, the 14th table, arithmetic average, N 5): 2410 nM
EC50 ([1]; EC50, OR47a cell line, fitted Hill equation, Hill coefficient constrained to 1, maximal response max 1): 2220 nM
EC50 ([1]; EC50, fitted average curve, the 14th table, fit to the average curve, n 0.854956): 2560 nM
EC50 ([1]; EC50, fitted parameter per biological replicate, the 14th table, individual replicate fits): 1810 nM and 2840 nM and 3360 nM and 2980 nM and 1050 nM
activation at 1 µM [1, 3]: 41%
activation at 10 µM [1, 3]: 85%
activation at 100 µM [1, 3]: 76%
Emax ([1]; HEK293, read-out: VUAA1 normalized MAX response): 96%
EC50 ([1]; LOG EC50, AVERAGE of replicate fits, the 14th table, N 5): 2220 nM
EC50 ([1]; LOG EC50, fitted parameter per biological replicate, the 14th table, OR47a D-R pentyl acetate, individual replicate fits, MIN 0, n 1): 1810 nM and 2840 nM and 3360 nM and 2980 nM and 1050 nM
OR47a response (VUAA1-normalized) at 1 μM [1]: 0.41
OR47a response (VUAA1-normalized) at 10 μM [1]: 0.85
OR47a response (VUAA1-normalized) at 100 μM [1]: 0.76
Average response ([1]; odorant cc. 1 µM): 0.41
Average response ([1]; odorant cc. 10 µM): 0.85
Average response ([1]; odorant cc. 100 µM): 0.76
DF norm AVERAGE OR47a [1, 4]: 0.4101
DF norm AVERAGE OR47a [1, 5]: 0.8532
DF norm AVERAGE OR47a [1, 6]: 0.7595
dose-response, response per biological replicate ([1]; the 14th table, VOC concentration 0.15): 0 (2×) and 0.08996
dose-response, AVERAGE response ([1]; the 14th table, VOC concentration 0.15, N 3): 0.02999
dose-response, response per biological replicate ([1]; the 14th table, VOC concentration 0.3): 0 (2×) and 0.06871 and 0.1596
dose-response, AVERAGE response ([1]; the 14th table, VOC concentration 0.3, N 4): 0.05709
dose-response, response per biological replicate ([1]; the 14th table, VOC concentration 0.6): 0.1609 and 0.1169 and 0.06805 and 0.08558 and 0.2252
dose-response, AVERAGE response ([1]; the 14th table, VOC concentration 0.6, N 5): 0.1313
dose-response, response per biological replicate ([1]; the 14th table, VOC concentration 1.25): 0.1915 and 0.1656 and 0.1715 and 0.5641
dose-response, AVERAGE response ([1]; the 14th table, VOC concentration 1.25, N 4): 0.2732
dose-response, response per biological replicate ([1]; the 14th table, VOC concentration 2.5): 0.3991 and 0.4483 and 0.3729 and 0.3818 and 0.7224
dose-response, AVERAGE response ([1]; the 14th table, VOC concentration 2.5, N 5): 0.4649
dose-response, response per biological replicate ([1]; the 14th table, VOC concentration 5): 0.9001 and 0.6438 and 0.6113 and 0.6294 and 0.9303
dose-response, AVERAGE response ([1]; the 14th table, VOC concentration 5, N 5): 0.743
dose-response, response per biological replicate ([1]; the 14th table, VOC concentration 10): 0.8372 and 0.7794 and 0.895 and 0.7979 and 1.027
dose-response, AVERAGE response ([1]; the 14th table, VOC concentration 10, N 5): 0.8674
dose-response, response per biological replicate ([1]; the 14th table, VOC concentration 20): 1.202 and 0.8226 and 0.9992 and 0.8736 and 1.052
dose-response, AVERAGE response ([1]; the 14th table, VOC concentration 20, N 5): 0.99
dose-response, response per biological replicate ([1]; the 14th table, VOC concentration 40): 1.114 and 0.9003 and 0.922 and 0.9538 and 0.9871
dose-response, AVERAGE response ([1]; the 14th table, VOC concentration 40, N 5): 0.9754
dose-response, response per biological replicate ([1]; the 14th table, VOC concentration 60): 1.02 and 0.8294 and 1.116 and 0.8263 and 0.955
dose-response, AVERAGE response ([1]; the 14th table, VOC concentration 60, N 5): 0.9493
dose-response, response per biological replicate ([1]; the 14th table, VOC concentration 80): 0.8413 and 0.8664 and 0.788 and 0.8411
dose-response, AVERAGE response ([1]; the 14th table, VOC concentration 80, N 4): 0.8342
dose-response, response per biological replicate ([1]; the 14th table, VOC concentration 100): 0.8402 and 0.9595 and 0.7641 and 0.7857
dose-response, AVERAGE response ([1]; the 14th table, VOC concentration 100, N 4): 0.8374
AVERAGE MAX ([1]; the 14th table, average of replicate fits, N 5): 0.9609
MAX, fitted average curve ([1]; the 14th table, fit to the average curve, n 0.854956): 1
MAX, fitted parameter per biological replicate ([1]; the 14th table, individual replicate fits): 1 (2×) and 0.9126 and 0.907 and 0.9849
OR71a response (VUAA1-normalized) at 1 μM [2]: 0.00
OR71a response (VUAA1-normalized) at 10 μM [2]: 0.00
OR71a response (VUAA1-normalized) at 100 μM [2]: 0.09
Average response ([2]; cc. 1 µM): 0.00
Average response ([2]; cc. 10 µM): 0.0163
Average response ([2]; cc. 100 µM): 0.09
DF norm AVERAGE OR71a [2, 4]: 0
DF norm AVERAGE OR71a [2, 5]: 0
DF norm AVERAGE OR71a [2, 6]: 0.08698

OCCc1ccccc1 [phenethyl alcohol]
OR47a response (VUAA1-normalized) at 1 μM [1]: 0.0564
OR47a response (VUAA1-normalized) at 10 μM [1]: 0.0644
OR47a response (VUAA1-normalized) at 100 μM [1]: 0.057
Average response ([1]; odorant cc. 1 µM): 0.0564
Average response ([1]; odorant cc. 10 µM): 0.0644
Average response ([1]; odorant cc. 100 µM): 0.057
DF norm AVERAGE OR47a [1, 4]: 0.05643
DF norm AVERAGE OR47a [1, 5]: 0.06438
DF norm AVERAGE OR47a [1, 6]: 0.05701
OR71a response (VUAA1-normalized) at 1 μM [2]: 0.09
OR71a response (VUAA1-normalized) at 10 μM [2]: 0.00
OR71a response (VUAA1-normalized) at 100 μM [2]: 0.00
Average response ([2]; cc. 1 µM): 0.09
Average response ([2]; cc. 10 µM): 0.03
Average response ([2]; cc. 100 µM): 0.0218
DF norm AVERAGE OR71a [2, 4]: 0.08619
DF norm AVERAGE OR71a [2, 5]: 0
DF norm AVERAGE OR71a [2, 6]: 0

Source: article PMC10709440, “High-throughput ligand profile characterization in novel cell lines expressing seven heterologous insect olfactory receptors for the detection of volatile plant biomarkers” (Scientific Reports, 2023)
